# Laboratory results published in patent US7297818B2, “Adamantane derivatives” (AstraZeneca AB, priority 1999, dated 2007).
# Structures can show the parent of a compound that is named as a salt.
smiles,measurement,value
"COCCNCCCc1ccc(Cl)c(C(=O)NCC23CC4CC(CC(C4)C2)C3)c1 (as salt: hydrochloride) [Example 22, 2-Chloro-5-[3-[(2-methoxyethyl)amino]propyl]-N-(tricyclo[3.3.1.1^3,7]dec-1-ylmethyl)-benzamide, hydrochloride salt]",melting point,245 to 248 °C
